Like-named read-outs stand apart in the source and are kept apart here.
How the values were obtained:
WI-38 cells [1] = experiment: Propidium iodide (PI) cell-death imaging upon H2O2 stress; type: cell-based, human; details: for Assay 7: H2O2-resistant, at 10 uM, validated by propidium iodide (PI) cell-death imaging: w/H2O2, 3 hrs/4 hrs/5 hrs, YES/NO; for cytotoxicity at 10 µM: Homo sapiens, WI-38
[2] = tested on: human dermal fibroblast (HDF) primary cells; experiment: H2O2-resistance in primary human dermal fibroblasts; type: cell-based; details: for fold induction at 10 µM: Homo sapiens; for Assay 6: H2O2-resistant, at 10 uM, human dermal fibroblast (HDF) primary cells: YES/NO
NRF2 = experiment: qPCR analysis of NRF2-regulated genes; type: cell-based, human; details: for Potential NRF2 Activation (>=2 target genes induced, by >=1.5-fold): Assay 13(p); for fold induction at 10 µM: Homo sapiens
How it was run: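 WI-38 cells treated with compound at 10 μM for 24 hrs, then processed by Cells-to-Ct for RNA isolation, RT and qPCR of NRF2-regulated genes (HMOX1, NQO1, GCLC, GSTM1). Expression normalized to B2M, PPIA and GAPDH; siRNA knockdown of FOXO3 or NRF2 (10 nM) preceded treatment in some runs.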

WI-38 cells [3] = experiment: Long-term effects on cell viability (5 days, ATP; morphology, PI imaging); type: cell-based; details: 10 μM; for Luminescence signal for ATP measurement, day-1 Average / Luminescence signal for ATP measurement, day-2 Average / Luminescence signal for ATP measurement, day-3 Average / Luminescence signal for ATP measurement, day-4 Average / Luminescence signal for ATP measurement, day-5 Average / viability at 10 µM: Batch 1; for Luminescence signal for ATP measurement, day-1 Average / Luminescence signal for ATP measurement, day-2 Average / Luminescence signal for ATP measurement, day-3 Average / Luminescence signal for ATP measurement, day-4 Average / Luminescence signal for ATP measurement, day-5 Average: n = 6, day-0 luminescence = 320956 ± 24708; for viability at 10 µM: Homo sapiens, WI-38, 120 h, DMSO ctrl = 100.0%, read-out: ATP luminescence by day-5 normalized; for Luminescence signal for ATP measurement, day-5 Average / viability at 10 µM: day-5;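 on Luminescence signal for ATP measurement, day-2 Average: compounds at 10 µM with ATP read daily over 5 days of treatment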;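 on Luminescence signal for ATP measurement, day-3 Average: compounds at 10 µM with ATP read daily over 5 days of treatment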;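 on Luminescence signal for ATP measurement, day-4 Average: compounds at 10 µM with ATP read daily over 5 days of treatment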;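 on Luminescence signal for ATP measurement, day-5 Average: compounds at 10 µM with ATP read daily over 5 days of treatment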
[4] = Summary score for characterization of 38 core set hits; details: for D = Triple resistant: 2-point score, multiplex resistance (cadmium, MMS, H2O2); for C = H2O2- & Cd-resistant: score, resistance to both H2O2 and cadmium
How it was run: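 Scoring awards 2 points per prominent longevity phenotype: resistance to multiple stresses, activation of FOXO3 and/or NRF2, reduced mTOR. Molecules with apparent DNA-damaging activity or cell toxicity in cultured human cells receive a negative point.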

[5] = H2O2 3 hrs, 10 uM, n = 6, negative control 5.44% ± 0.79%, read-out: Percentage of propidium iodide-positive dead cells (under H2O2 stress treatment), 3 hrs
[6] = pre-treatment at 10 uM, 3.5 hours of H2O2, DMSO control 27.4% ± 6.5%, */**/*** = reduced by one/two/three standard deviations, read-out: Percentage of propidium iodide-positive dead cells (under H2O2 stress treatment), at 10 uM
[7] = Experiment 1, HDF cells, read-out: Experiment 1, HDF cells (under H2O2 stress treatment), at 10 uM (fold change)
[8] = Experiment 2, HDF cells, read-out: Experiment 2, HDF cells (under H2O2 stress treatment), at 10 uM (fold change)
[9] = 24 h, Assay 12(o), at 10 uM, qPCR, read-out: Induction of NRF2-regulated genes: GCLC normalized fold-change
[10] = 24 h, Assay 12(o), at 10 uM, qPCR, read-out: Induction of NRF2-regulated genes: NQO1 normalized fold-change
[11] = rounded fold change, WI-38 cells, 10 μM, 24 hrs (RP29 for Gr-4D), read-out: Summary of effects on NRF2-regulated genes: NQO1
[12] = rounded fold change, WI-38 cells, 10 μM, 24 hrs, read-out: Summary of effects on NRF2-regulated genes: GCLC
[13] = 10 μM, 24 hrs, WI-38, read-out: Expression of at least two NRF2 target genes
[14] = 10 μM, 24 hrs, WI-38 cells, qPCR, normalized to B2M, n = 4, read-out: GCLC expression, normalized fold change (NRF2-regulated gene)
[15] = 10 μM, 24 hrs, WI-38 cells, qPCR, normalized to B2M, n = 4, read-out: NQO1 expression, normalized fold change (NRF2-regulated gene)
[16] = WI-38 cells, 10 μM, 24 hrs, n=4, qPCR normalized by B2M, read-out: GCLC Normalized fold change
[17] = WI-38 cells, 10 μM, 24 hrs, n=4, qPCR normalized by B2M, read-out: GSTM1 Normalized fold change
[18] = WI-38 cells, 10 μM, 24 hrs, n=4, qPCR normalized by B2M, read-out: HMOX1 Normalized fold change
[19] = WI-38 cells, 10 μM, 24 hrs, n=4, qPCR normalized by B2M, read-out: NQO1 Normalized fold change
[20] = 24 h, Assay 12(o), at 10 uM, qPCR, read-out: Induction of NRF2-regulated genes: GSTM1 normalized fold-change
[21] = 24 h, Assay 12(o), at 10 uM, qPCR, read-out: Induction of NRF2-regulated genes: HMOX1 normalized fold-change
[22] = rounded fold change, WI-38 cells, 10 μM, 24 hrs (RP11 for Gr-1D, RP29 for Gr-4D), read-out: Summary of effects on NRF2-regulated genes: HMOX1
[23] = rounded fold change, WI-38 cells, 10 μM, 24 hrs (RP29 for Gr-4D), read-out: Summary of effects on NRF2-regulated genes: GSTM1
[24] = 10 μM, 24 hrs, WI-38 cells, qPCR, normalized to B2M, n = 4, read-out: GSTM1 expression, normalized fold change (NRF2-regulated gene)
[25] = 10 μM, 24 hrs, WI-38 cells, qPCR, normalized to B2M, n = 4, read-out: HMOX1 expression, normalized fold change (NRF2-regulated gene)
[26] = H2O2 4 hrs, 10 uM, n = 6, negative control 16.81% ± 1.42%, read-out: Percentage of propidium iodide-positive dead cells (under H2O2 stress treatment), 4 hrs

Row | SMILES | Assay 7: H2O2-resistant, at 10 uM, validated by propidium iodide (PI) cell-death imaging (WI-38 cells [1]; 10 uM) | cytotoxicity at 10 µM (WI-38 cells [1]; [5]) [%] | cytotoxicity at 10 µM (WI-38 cells [1]; [6]) [%] | fold induction at 10 µM [2, 7] | fold induction at 10 µM [2, 8] | Assay 6: H2O2-resistant, at 10 uM, human dermal fibroblast (HDF) primary cells [2] | F = Potential NRF2 Activation (NRF2; 2-point score) | fold induction at 10 µM (NRF2; [11]) | fold induction at 10 µM (NRF2; [13]) | fold induction at 10 µM (NRF2; [15]) | fold induction at 10 µM (NRF2; [16]) | fold induction at 10 µM (NRF2; [17]) | fold induction at 10 µM (NRF2; [18]) | fold induction at 10 µM (NRF2; [19]) | F = Potential NRF2 Activation (NRF2; summary score) | Luminescence signal for ATP measurement, day-1 Average (WI-38 cells [3]) | Luminescence signal for ATP measurement, day-2 Average (WI-38 cells [3]) | Luminescence signal for ATP measurement, day-3 Average (WI-38 cells [3]) | Luminescence signal for ATP measurement, day-4 Average (WI-38 cells [3]) | Luminescence signal for ATP measurement, day-5 Average (WI-38 cells [3]) | also measured
1 | COC(=O)CCc1sc2c(c1[N+](=O)[O-])NC(=O)CCC2 [O20] | YES | 3.28 | 9.4 | 1.08 | 63.9 | YES | 2 | 2.49 | > 1.5 | 2.49 | 1.76 | 1.36 | 0.937 | 2.49 | 2 | 544305 | 770055 | 888893 | 997113 | 926888 | Potential NRF2 Activation (>=2 target genes induced, by >=1.5-fold) (NRF2): YES; fold induction at 10 µM (NRF2; [9]): 1.76; fold induction at 10 µM (NRF2; [10]): 2.49; fold induction at 10 µM (NRF2; [12]): 1.76; fold induction at 10 µM (NRF2; [14]): 1.76; viability at 10 µM (WI-38 cells [3]): 90.3%; O = Potential toxicity (WI-38 cells [3]; human, 5 days): 1; Q = Potential toxicity (WI-38 cells [3]; human, 5 days): 0; D = Triple resistant [4]: 0; S = Sum of Negative scores ([4]; human): 0; C = H2O2- & Cd-resistant [4]: 1
2 | COc1ccc(C(=O)/C=C/c2ccc(F)cc2)c(OC)c1 [Gr-4A] | YES | 1.87 | 1.9 | 7.16 | 2.35 | YES | 2 | 2.73 | > 1.5 | 2.73 | 1.18 | 1.24 | 5.24 | 2.73 | 2 | 501436 | 605711 | 772420 | 995321 | 1019996 | Potential NRF2 Activation (>=2 target genes induced, by >=1.5-fold) (NRF2): YES; fold induction at 10 µM (NRF2; [20]): 1.24; fold induction at 10 µM (NRF2; [21]): 5.24; fold induction at 10 µM (NRF2; [10]): 2.73; fold induction at 10 µM (NRF2; [22]): 5.24; fold induction at 10 µM (NRF2; [23]): 1.24; fold induction at 10 µM (NRF2; [24]): 1.24; fold induction at 10 µM (NRF2; [25]): 5.24; viability at 10 µM (WI-38 cells [3]): 99.3%; O = Potential toxicity (WI-38 cells [3]; human, 5 days): 0; Q = Potential toxicity (WI-38 cells [3]; human, 5 days): 0; D = Triple resistant [4]: 0; C = H2O2- & Cd-resistant [4]: 1; S = Sum of Negative scores ([4]; sum of columns Q and R): 0
3 | CCc1ccc(Oc2nc3ccccn3c(=O)c2/C=C(\C#N)C(=O)NC2CCCCC2)cc1 [Gr-5A] | YES | 1.64 | 3.7 | 2.95 | 2 | YES | 2 | 1.55 | > 1.5 | 1.55 | 0.919 | 1.15 | 2.06 | 1.55 | 2 | 527000 | 728148 | 837593 | 1074220 | 1082445 | cytotoxicity at 10 µM (WI-38 cells [1]; [26]): 8.97%; Potential NRF2 Activation (>=2 target genes induced, by >=1.5-fold) (NRF2): YES; fold induction at 10 µM (NRF2; [21]): 2.06; fold induction at 10 µM (NRF2; [10]): 1.55; fold induction at 10 µM (NRF2; [22]): 2.06; fold induction at 10 µM (NRF2; [25]): 2.06; viability at 10 µM (WI-38 cells [3]): 105%; O = Potential toxicity (WI-38 cells [3]; human, 5 days): 0; Q = Potential toxicity (WI-38 cells [3]; human, 5 days): 0; D = Triple resistant [4]: 0; S = Sum of Negative scores ([4]; human): 0; C = H2O2- & Cd-resistant [4]: 1
4 | NS(=O)(=O)c1ccc(NC(=O)c2ccc([N+](=O)[O-])o2)cc1 [Gr-1A] | YES | 1.44 | 22.6 | 3.89 | 52.5 | YES | 2 | 1.79 | > 1.5 | 1.79 | 1.61 | 2.53 | 0.973 | 1.79 | 0 | 477461 | 610735 | 739676 | 878508 | 943836 | cytotoxicity at 10 µM (WI-38 cells [1]; [26]): 3.18%; cytotoxicity at 10 µM (WI-38 cells [1]; H2O2 5 hrs, 10 uM, n = 6, negative control 22.50% ± 1.53%, read-out: Percentage of propidium iodide-positive dead cells (under H2O2 stress treatment), 5 hrs): 7.49%; fold induction at 10 µM (NRF2; [9]): 1.48; fold induction at 10 µM (NRF2; [20]): 1.45; fold induction at 10 µM (NRF2; [23]): 1.45; fold induction at 10 µM (NRF2; [12]): 1.61; fold induction at 10 µM (NRF2; [14]): 1.61; fold induction at 10 µM (NRF2; [24]): 1.45; viability at 10 µM (WI-38 cells [3]): 91.9%; O = Potential toxicity (WI-38 cells [3]; human, 5 days): 0; Q = Potential toxicity (WI-38 cells [3]; human, 5 days): 0; Reduction of ATP content after 5 days of continuous incubation (WI-38 cells [3]; human, 5 days): more than 40%; D = Triple resistant [4]: 0; S = Sum of Negative scores ([4]; human): 1; C = H2O2- & Cd-resistant [4]: 1
